The values that follow come from article PMC6152678, “In Vitro Comparative Study of the Inhibitory Effects of Mangiferin and Its Aglycone Norathyriol towards UDP-Glucuronosyl Transferase (UGT) Isoforms” (Molecules : A Journal of Synthetic Chemistry and Natural …, 2017).

One data set addresses T1, UGT1A10 (Homo sapiens, UniProt Q9HAW8).
T1 construct: purchased BD Gentest Corp. (Woburn, MA, USA); host or cells: baculovirus-infected insect cells
T1 sequence (Q9HAW8 26-530): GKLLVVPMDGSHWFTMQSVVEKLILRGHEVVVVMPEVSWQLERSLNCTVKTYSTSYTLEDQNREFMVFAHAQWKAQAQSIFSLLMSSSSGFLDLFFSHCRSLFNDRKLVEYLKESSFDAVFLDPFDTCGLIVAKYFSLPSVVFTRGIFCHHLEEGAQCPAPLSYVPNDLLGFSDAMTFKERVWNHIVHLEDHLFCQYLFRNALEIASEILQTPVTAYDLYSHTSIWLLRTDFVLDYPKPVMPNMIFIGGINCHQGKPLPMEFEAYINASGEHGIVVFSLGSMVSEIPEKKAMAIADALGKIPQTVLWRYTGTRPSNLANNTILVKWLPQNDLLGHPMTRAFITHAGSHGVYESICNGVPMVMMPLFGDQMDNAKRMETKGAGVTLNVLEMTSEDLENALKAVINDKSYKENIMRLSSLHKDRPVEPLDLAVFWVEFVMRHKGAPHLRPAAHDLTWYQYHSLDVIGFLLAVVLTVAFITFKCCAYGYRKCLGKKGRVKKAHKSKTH
The data set can be described thus: Inhibition of recombinant UGT-catalyzed 4-MU glucuronidation. It is filed as biochemical. The following applies: pH 7.4, probe 4-methylumbelliferone (4-MU), 30 μM, 100 μM compound, 4-MU probe substrate, negative = activation.

For the next data set, the target named is T2, UGT2B17 (Homo sapiens, UniProt O75795).
T2 construct: purchased BD Gentest Corp. (Woburn, MA, USA); host or cells: baculovirus-infected insect cells
T2 sequence (O75795 24-530): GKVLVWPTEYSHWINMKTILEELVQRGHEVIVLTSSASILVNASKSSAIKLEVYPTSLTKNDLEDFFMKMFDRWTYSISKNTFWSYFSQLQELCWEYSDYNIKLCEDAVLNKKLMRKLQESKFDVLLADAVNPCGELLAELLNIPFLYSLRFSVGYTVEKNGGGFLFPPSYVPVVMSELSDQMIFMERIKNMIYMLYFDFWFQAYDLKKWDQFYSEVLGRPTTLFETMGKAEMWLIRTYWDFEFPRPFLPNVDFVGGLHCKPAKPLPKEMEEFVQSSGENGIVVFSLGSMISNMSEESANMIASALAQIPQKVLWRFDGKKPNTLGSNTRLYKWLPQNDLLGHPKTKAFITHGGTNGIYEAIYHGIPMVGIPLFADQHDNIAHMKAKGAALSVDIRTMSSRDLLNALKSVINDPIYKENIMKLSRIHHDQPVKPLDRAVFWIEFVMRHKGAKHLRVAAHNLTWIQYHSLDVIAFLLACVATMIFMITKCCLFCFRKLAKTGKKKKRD
The description is as above. It is filed as biochemical. Particulars: pH 7.4, probe 4-methylumbelliferone (4-MU), 2000 μM, 100 μM compound, 4-MU probe substrate, negative = activation.

`O=c1c2cc(O)c(O)cc2oc2cc(O)cc(O)c12` [NTR, 1,3,6,7-tetrahydroxyxanthone]: the inhibition at 120 min, 100 µM at UGT1A10 was -272%; on UGT2B17 it was 48.6%.

Regarding `O=c1c2cc(O)c(O)cc2oc2cc(O)c([C@@H]3O[C@H](CO)[C@@H](O)[C@H](O)[C@H]3O)c(O)c12` [MGF, 1,3,6,7-tetrahydroxyxanthone-C-2-β-D-glucoside], the figures for the inhibition at 120 min, 100 µM at UGT1A10 and at UGT2B17 were -86.4% and -106%, respectively.

As a reminder, the inhibition is the change of the read-out against control, counted positive when it falls.
